{"source": "patent US12234484B2", "about": "“Culture medium for pluripotent stem cells” (PROMOCELL GMBH, priority 2017, dated 2025)", "molecules": {"B1": {"name": "activin a: homodimer of the inhibin beta A subunit (UniProtKB P08476), member of the TGF-β superfamily (protein, UniProt P08476 311-426, looked up)", "Inhibin beta A chain": "GLECDGKVNICCKKQFFVSFKDIGWNDWIIAPSGYHANYCEGECPSHIAGTSGSSLSFHSTVINHYRMRGHSPFANLKSCCVPTKLRPMSMLYYDDGQNIIKKDIQNMIVEECGCS", "modifications": "Inhibin beta A chain", "notes": "homodimer of the inhibin beta A subunit (UniProtKB P08476), member of the TGF-β superfamily"}}, "key": {"stem cells": {"test_system": "stem cells", "details": "cultured in the absence of FGF2; cited from earlier work"}, "[1]": {"details": "cited from earlier work; for biological half-life: under cell culture conditions"}, "[2]": {"test_system": "hiPS cell line SBI #SC101A-1", "assay": "hPSC culture, microscopic analysis of morphological growth pattern and proliferation", "assay_type": "cell-based, human", "details": "defined, feeder-free culture on vitronectin; Example 1 medium containing only the named factor(s); no FGF-2", "method": "The culture vessel was coated with 0.5 μg/cm^2 of recombinant human vitronectin as ECM. For this, 100 μl of a diluted vitronectin solution per cm^2 of culture vessel surface is applied to the culture vessel with. The coated culture vessel is left for 2 hours at room temperature. The vitronectin solution was aspirated just before seeding the cells.\nThe cell line used in this experiment is the human foreskin fibroblast derived hiPS cell line SBI #SC101A-1 (obtainable from System Biosciences (SBI), Palo Alto, under the defined reference number).\nThe stem cell culture medium was prepared as described in Example 1. For cryopreserved cells, a ROCK-Inhibitor (10 μM Y-27632 or 2 μM Thiazovivin) is added to the stem cell culture medium. Alternatively, for existing proliferating cultures a clump passage was performed as described in Example 3 below.\nThe hPSCs were seeded in a 1:2 to 1:3 ratio (relative to the volume of the tissue culture vessel) into the ECM coated tissue culture vessel using an appropriate amount of culture medium. For example, 2-3 ml per well are used for 6-well plates and 15-25 ml for T-75 flasks.\nAfter plating, the subcultured hPSCs were allowed to attach overnight (12-24 hours).\nA medium change was performed: the stem cell culture medium including non-attached cells was aspirated, washed once with Dulbecco's PBS, w/o Ca^2+/Mg^2+ and the cells were provided with fresh culture medium (w/o ROCK-Inhibitors).\nA media change was performed every 1-3 days.\nThe stem cell culture medium was aspirated and the hPSCs were washed twice with Dulbecco's PBS, w/o Ca^2+/Mg^2+. Next, 200-300 μl/cm^2 of dissociation buffer was added and the solution was incubated for 6-10 minutes in the incubator at 37° C. and 5% CO2. The dissociation buffer was carefully aspirated and 1-5 ml of fresh culture medium was added. The colonies were flushed away from the surface using a serological pipet. In order to maintain cell clumps of sufficient size flushing of more than 4-5 times was avoided. Then, cell clumps were dispensed into new ECM-coated culture vessels with fresh stem cell culture medium and the culture was continued according to the cell attachment step (step 2.3) of Example 2.\nInduced pluripotent stem cells were cultured in the presence of the stem cell culture medium according to Example 1 without trimipramine in order to reproduce published observations that activin a on its own cannot fully support undifferentiated maintenance of most hPSC lines (Vallier et al., 2005; Xiao et al., 2006). Initiation of the hPSC culture was performed according to Example 2, followed by subculturing the cells according to Example 3.\nIt was also aimed to reproduce the published partial self-renewal support capabilities of trimipramine in human pluripotent stem cells (Kumagai et al., 2013). […]"}}, "data": [{"molecule": "CCN(CC)CCCC(C)Nc1c2ccc(Cl)cc2nc2ccc(OC)cc12", "note": "(centres unmarked) [mepacrine]", "values": [{"measurement": "expression of pluripotency markers SSEA-3, SSEA-4 TRA-1-60, TRA-1-81 and OCT4", "setting": "stem cells", "result": "induce the expression of known pluripotency markers"}]}, {"molecule": "CCN(CC)C(C)CN1c2ccccc2Sc2ccccc21", "note": "(centres unmarked) [profenamine]", "values": [{"measurement": "expression of pluripotency markers SSEA-3, SSEA-4 TRA-1-60, TRA-1-81 and OCT4", "setting": "stem cells", "result": "induce the expression of known pluripotency markers"}]}, {"molecule": "CC(CN1c2ccccc2Sc2ccccc21)N(C)C", "note": "(centres unmarked) [promethazine]", "values": [{"measurement": "expression of pluripotency markers SSEA-3, SSEA-4 TRA-1-60, TRA-1-81 and OCT4", "setting": "stem cells", "result": "induce the expression of known pluripotency markers"}]}, {"molecule": "CC(CN(C)C)CN1c2ccccc2CCc2ccccc21", "note": "(centres unmarked) [trimipramine]", "values": [{"measurement": "half-life", "setting": "[1]", "result": 23, "unit": "h"}, {"measurement": "cell proliferation / expansion of hPSC", "setting": "[2]", "result": "not sufficient to effectively expand the human pluripotent stem cells"}, {"measurement": "maintenance of undifferentiated state (morphological phenotype)", "setting": "[2]", "result": "able to maintain the prototypical pluripotent morphological phenotype"}, {"measurement": "expression of pluripotency markers SSEA-3, SSEA-4 TRA-1-60, TRA-1-81 and OCT4", "setting": "stem cells", "result": "induce the expression of known pluripotency markers"}]}, {"molecule": "FGF-2: growth factor (FGFR ligand) traditionally used in hPSC media", "values": [{"measurement": "biological half-life", "setting": "[1]", "result": "5-7 hours"}]}, {"molecule": "TGF-β1: growth factor (ALK5 ligand) traditionally used in hPSC media", "values": [{"measurement": "biological half-life", "setting": "[1]", "result": 50, "unit": "minutes"}]}, {"molecule": "B1", "values": [{"measurement": "cell proliferation / expansion of hPSC", "setting": "[2]", "result": "significant cell proliferation"}, {"measurement": "maintenance of undifferentiated state (morphological phenotype)", "setting": "[2]", "result": "not able to robustly support the maintenance of the tested hPSC line in an undifferentiated state"}]}]}
